In ChEMBL document CHEMBL1201862, “PubChem BioAssay data set” (2004):
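Cultured in 96-well plates, cells were exposed to test compound for 48 hours across five concentrations. GI50 = concentration required for 50% inhibition of growth.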 Active and inactive are the calls of the source. Cut-off read from the data, not from the text of the source: active = GI50 up to about 1.1 µM and inactive = higher.

Legend:
Experiment in all cases: NCI tumour cell line growth inhibition, 48 h
ACHN = tested on: ACHN
HCT-116 = tested on: HCT-116
HCT-15 = tested on: HCT-15
HOP-62 = tested on: HOP-62
Hs-578T = tested on: Hs-578T
MDA-MB-231 = tested on: MDA-MB-231
MDA-MB-435 = tested on: MDA-MB-435
NCI-H23 = tested on: NCI-H23
NCI-H460 = tested on: NCI-H460
NCI/ADR-RES = tested on: NCI/ADR-RES
OVCAR-3 = tested on: OVCAR-3
OVCAR-4 = tested on: OVCAR-4
PC-3 = tested on: PC-3
SK-MEL-28 = tested on: SK-MEL-28
SK-MEL-2 = tested on: SK-MEL-2
SK-OV-3 = tested on: SK-OV-3
SR = tested on: SR
UACC-257 = tested on: UACC-257

| Structure (SMILES) | GI50 (ACHN) | GI50 (HCT-116) | GI50 (HCT-15) [µM] | GI50 (HOP-62) | GI50 (Hs-578T) | GI50 (MDA-MB-231) | GI50 (MDA-MB-435) | GI50 (NCI-H23) | GI50 (NCI-H460) | GI50 (NCI/ADR-RES) | GI50 (OVCAR-3) | GI50 (OVCAR-4) | GI50 (PC-3) | GI50 (SK-MEL-28) | GI50 (SK-MEL-2) | GI50 (SK-OV-3) | GI50 (SR) | GI50 (UACC-257) |
| --- | --- | --- | --- | --- | --- | --- | --- | --- | --- | --- | --- | --- | --- | --- | --- | --- | --- | --- |
| COc1c(-c2nc3ccc(N4CCN(C)CC4)cc3[nH]2)cc(OC)c2[nH]c(CO)nc12 | > 100 µM (inactive) | 58.6 µM (inactive) | > 100 | 92.9 µM (inactive) | > 100 µM (inactive) | 74 µM (inactive) | 69.5 µM (inactive) | > 100 µM (inactive) | 91 µM (inactive) | > 100 µM (inactive) | > 100 µM (inactive) | 72.6 µM (inactive) | > 100 µM (inactive) | > 100 µM (inactive) | > 100 µM (inactive) | > 100 µM (inactive) | > 100 µM (inactive) | > 100 µM (inactive) |
| CC(=O)OCC1OC(O[C@@H]2c3c(O)c4c(c(O)c3C3=C(NN(c5ccc([N+](=O)[O-])cc5[N+](=O)[O-])[Se]3=O)[C@@]2(C)O)C(=O)c2ccccc2C4=O)C(OC(C)=O)C(OC(C)=O)C1OC(C)=O (stereo partly drawn) | 0.222 µM (active) | 0.141 µM (active) | 0.211 | 0.189 µM (active) | 0.303 µM (active) | 0.346 µM (active) | 0.145 µM (active) | 0.251 µM (active) | 0.192 µM (active) | 0.336 µM (active) | 0.158 µM (active) | 0.201 µM (active) | 0.261 µM (active) | 0.242 µM (active) | 0.212 µM (active) | 0.281 µM (active) | 0.179 µM (active) | 0.376 µM (active) |
| O=C(O)CNC(=O)CO/N=C1/C(=C2/C(=O)Nc3ccccc32)Nc2ccccc21 | > 100 µM (inactive) | > 100 µM (inactive) | 51.8 | 27.4 µM (inactive) | > 100 µM (inactive) | > 100 µM (inactive) | > 100 µM (inactive) | > 100 µM (inactive) | > 100 µM (inactive) | > 100 µM (inactive) | 42.2 µM (inactive) | > 100 µM (inactive) | 60.8 µM (inactive) | > 100 µM (inactive) | > 100 µM (inactive) | 20.9 µM (inactive) | 38.5 µM (inactive) | > 100 µM (inactive) |
| c1csc(-c2cscc2-c2ccsc2)c1 | > 83.9 µM (inactive) | 41.2 µM (inactive) | 30.3 | 42.3 µM (inactive) | 20.4 µM (inactive) | > 100 µM (inactive) | 25.5 µM (inactive) | 35.3 µM (inactive) | 62.2 µM (inactive) | 48.1 µM (inactive) | 18.4 µM (inactive) | 44.5 µM (inactive) | > 43.8 µM (inactive) | > 100 µM (inactive) | 52.2 µM (inactive) | 47.4 µM (inactive) | 26.6 µM (inactive) | > 94.4 µM (inactive) |
| Cc1ccc2c3ccc4c(c3n(C)c2c1)C(=O)C=CC4=O | 3.51 µM (inactive) | 2.33 µM (inactive) | 4.6 | > 10 µM (inactive) | > 10 µM (inactive) | 3.97 µM (inactive) | 5.86 µM (inactive) | > 9.23 µM (inactive) | > 10 µM (inactive) | > 5.89 µM (inactive) | 2.52 µM (inactive) | > 5.12 µM (inactive) | > 10 µM (inactive) | > 6.01 µM (inactive) | 9.95 µM (inactive) | > 10 µM (inactive) | 1.42 µM (inactive) | 6.67 µM (inactive) |
| O=C1C(Cl)=C(NCCO)C(=O)c2c(O)ccc(O)c21 | 5.01 µM (inactive) | 1.95 µM (inactive) | 2.53 | 3.28 µM (inactive) | 6.56 µM (inactive) | 1.95 µM (inactive) | 2.17 µM (inactive) | 2.6 µM (inactive) | 1.85 µM (inactive) | 5.18 µM (inactive) | 2.76 µM (inactive) | 0.6 µM (active) | 2.78 µM (inactive) | 1.92 µM (inactive) | 3.02 µM (inactive) | > 10 µM (inactive) | 2.41 µM (inactive) | 1.33 µM (inactive) |
| CC(=O)N(C)CCc1c[nH]c2ccccc12 | > 100 µM (inactive) | > 100 µM (inactive) | > 100 | > 100 µM (inactive) | > 100 µM (inactive) | > 100 µM (inactive) | > 100 µM (inactive) | > 100 µM (inactive) | > 100 µM (inactive) | > 100 µM (inactive) | > 100 µM (inactive) | > 100 µM (inactive) | > 100 µM (inactive) | > 100 µM (inactive) | > 100 µM (inactive) | > 100 µM (inactive) | > 100 µM (inactive) | > 100 µM (inactive) |
| CCCCCCc1cc2cc(-c3cn4ccccc4n3)c(=O)oc2cc1O | 18 µM (inactive) | 4.55 µM (inactive) | 5.66 | 11.8 µM (inactive) | 4.14 µM (inactive) | 3.27 µM (inactive) | 5.24 µM (inactive) | 5.66 µM (inactive) | 15 µM (inactive) | 5.26 µM (inactive) | 4.38 µM (inactive) | 4.66 µM (inactive) | 18.7 µM (inactive) | 9.14 µM (inactive) | 13.6 µM (inactive) | 13.6 µM (inactive) | 5.57 µM (inactive) | 18.1 µM (inactive) |
| CC12CC3(O)OC(O1)C1(COC(=O)c4ccccc4)C3CC21OC1OC(CO)C(O)C(O)C1O (stereo not drawn) | > 100 µM (inactive) | > 100 µM (inactive) | > 100 | > 100 µM (inactive) | > 100 µM (inactive) | > 100 µM (inactive) | > 100 µM (inactive) | > 100 µM (inactive) | > 100 µM (inactive) | > 100 µM (inactive) | > 100 µM (inactive) | > 100 µM (inactive) | > 100 µM (inactive) | > 100 µM (inactive) | > 100 µM (inactive) | > 100 µM (inactive) | > 100 µM (inactive) | > 100 µM (inactive) |
| Cc1ccc(/N=N/c2c(O)ccc3cc(S(=O)(=O)O)cc(S(=O)(=O)O)c23)cc1 | > 100 µM (inactive) | > 100 µM (inactive) | > 100 | > 100 µM (inactive) | > 100 µM (inactive) | > 100 µM (inactive) | > 100 µM (inactive) | > 100 µM (inactive) | > 100 µM (inactive) | > 100 µM (inactive) | > 100 µM (inactive) | > 100 µM (inactive) | > 100 µM (inactive) | > 100 µM (inactive) | > 100 µM (inactive) | > 100 µM (inactive) | > 100 µM (inactive) | > 100 µM (inactive) |
| CN(Cc1ccccc1)Cn1ccnc1 | > 100 µM (inactive) | 39.4 µM (inactive) | 59.4 | > 100 µM (inactive) | > 100 µM (inactive) | > 56 µM (inactive) | 51.4 µM (inactive) | > 85.5 µM (inactive) | 40.3 µM (inactive) | > 100 µM (inactive) | > 100 µM (inactive) | > 100 µM (inactive) | > 75.9 µM (inactive) | 34.1 µM (inactive) | > 100 µM (inactive) | > 100 µM (inactive) | 26.2 µM (inactive) | 22.4 µM (inactive) |
